Tests used:
Sprague Dawley rats [1] = experiment: Tail flick test after intrathecal administration; assay type: in vivo, rat; settings: for change in analgesia, antagonist alone: control experiment, p>0.05
Method: (§1) ESP7 was tested clinically in rats to determine analgesic effect and tolerance. The classical tail flick test was used to measure pain response and thermal pain was mimicked using a heat source. This system was controlled using standard opioids. The drug was administered with cyclodextran to increase solubility of the peptide in an aqueous solution.
Adult male Sprague Dawley rats (200-250 g) were implanted with chronic indwelling intrathecal catheters using a modified protocol of Yaksh and Rudy, Physiol. Behav., 17: 1031-1036 (1976). […] The rats were anesthetized throughout the surgery with 5.0% isoflurane. The catheter was inserted through the alanto-occipital membrane and into the intrathecal space using a guide wire. Sutures were used to secure the placement of the catheter. The rats were allowed to recover from surgery for 3-4 days and any rats with neurological impairment were not used for analgesic measurements. Rats were housed separately in a 12 hr light-dark cycle with free access to food and water. During their recovery from surgery, rats were habituated to the laboratory environment and analgesic testing apparatus.
For measurement of the thermal anti-nociceptive properties of the peptides of interest, the tail flick test was employed. Rats were first habituated to the tail flick chamber. During testing, the rats were placed in the chamber and a light source, which generated heat, was directed at their tail. The latency to remove the tail was recorded. The baseline latency was approximately 3.5 sec and the cutoff latency was 10 sec to avoid tissue damage. Three measurements were made at each pre- and post-treatment time point and the results were averaged. Responses were expressed as % maximum possible effect: […]
Rats were given doses of 1.0 μg (FIG. 5), 0.2 μg (FIG. 6), and 0.05 μg (FIG. 7) of ESP7. The desired concentration of the compound (in 10 μl) was injected into the catheter followed by 10 μl saline flush to fill the dead volume. ESP7 was combined with two molecules of cyclodextrin (ESP7+2CD) to increase solubility. […]

NK1 receptor = target: T1, NK1 receptor (Rattus norvegicus, UniProt P14600); experiment: SP (NK1) receptor binding assay, [125I]BH-SP competition, crude rat brain plasma membranes
T1 construct: The same procedure was followed for the SP receptor except the wash with NaCl was eliminated; from tissue; host or cells: rat brain (crude plasma membranes)
T1 sequence (P14600 whole entry): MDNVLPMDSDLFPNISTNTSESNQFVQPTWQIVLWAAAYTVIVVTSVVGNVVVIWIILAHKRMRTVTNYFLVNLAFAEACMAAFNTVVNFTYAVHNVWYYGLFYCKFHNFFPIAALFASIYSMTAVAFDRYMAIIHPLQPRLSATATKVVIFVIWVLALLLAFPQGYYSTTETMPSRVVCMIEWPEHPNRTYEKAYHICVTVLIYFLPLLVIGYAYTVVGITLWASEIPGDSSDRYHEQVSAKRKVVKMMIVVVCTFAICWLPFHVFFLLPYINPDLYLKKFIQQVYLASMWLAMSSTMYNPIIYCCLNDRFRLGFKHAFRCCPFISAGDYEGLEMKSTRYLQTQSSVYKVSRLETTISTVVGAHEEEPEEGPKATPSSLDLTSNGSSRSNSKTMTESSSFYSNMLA

rats = experiment: Tail flick test after intraperitoneal administration; assay type: in vivo, rat; settings: 1 mg intraperitoneal
Method: as §1
ESP7 was administered intraperitoneally in order to assess the effectiveness of ESP7 systemically. The tail flick assay was used to measure analgesia as described above in Example 2.1. Briefly, the rats were first habituated to the tail flick chamber. During testing, the rats were placed in the chamber and a light source, which generated heat, was directed at their tail. The latency to remove the tail was recorded. The baseline latency was approximately 3.5 sec and the cutoff latency was 10 sec to avoid tissue damage. Three measurements were made at each pre- and post-treatment time point and the results were averaged. Responses were expressed as % maximum possible effect (MPE): [formula]

μ receptor = target: T2, μ receptor (Rattus norvegicus, UniProt P33535); experiment: μ receptor binding assay, [3H]DAMGO competition, crude rat brain plasma membranes
T2 construct: frozen rat brains (−80° C.) were homogenized in 40 volumes of standard Tris buffer; from tissue; host or cells: rat brain (crude plasma membranes)
T2 sequence (P33535 whole entry): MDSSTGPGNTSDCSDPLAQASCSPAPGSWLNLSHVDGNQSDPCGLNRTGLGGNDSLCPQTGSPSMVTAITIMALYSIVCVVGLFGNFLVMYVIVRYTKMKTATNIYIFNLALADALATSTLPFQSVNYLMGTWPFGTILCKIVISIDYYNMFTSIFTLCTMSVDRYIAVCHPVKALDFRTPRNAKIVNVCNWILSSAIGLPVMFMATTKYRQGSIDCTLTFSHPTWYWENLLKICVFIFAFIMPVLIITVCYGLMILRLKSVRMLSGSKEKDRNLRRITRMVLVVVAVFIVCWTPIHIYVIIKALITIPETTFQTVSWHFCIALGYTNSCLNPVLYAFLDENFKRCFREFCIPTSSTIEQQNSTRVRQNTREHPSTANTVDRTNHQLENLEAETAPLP
Method: For binding assays to opioid receptors, frozen rat brains (−80° C.) were homogenized in 40 volumes of standard Tris buffer (50 mM Tris HCl (pH 7.4), 0.2 mg/ml BSA, 2.5 mM EDTA, 40 μg/ml bacitracin, 30 μg/ml bestatin and 5 mM MgCl2) and centrifuged at 15,000×g for 20 minutes. 100 mM NaCl was added to the buffer, in order to remove endogenous ligands, and the centrifugation was repeated. After a wash with standard buffer, the membrane preparation was finally resuspended in 10 volumes of incubation buffer (standard buffer with 4 μg/ml leupeptin and 2 μg/ml chymostatin). […] The brain homogenates were used on the day of preparation.
Binding assays for the μ receptor were performed at 4° C. for 90 minutes, as described in Zadina et al., Life Sci, 55: 461-466 (1994). […] After incubation the samples were filtered on a Brandell-Harvester using an appropriate GF/B filter soaked in 50 mM Tris HCl (pH 7.4) and 0.5% PEI. Scintillation fluid was added to the filters in order to solubilize the membranes, and a beta-counter was used to quantify radioactivity.

Sprague Dawley rats [2] = experiment: Tail flick test after intracerebroventricular administration; assay type: in vivo, rat; settings: 1.0 μg intracerebroventricular; data not shown
Method: as §1
Adult male Sprague Dawley rats weighing 200-250 g were used. Before surgery, the rats were anesthesized with 0.2-0.3 mL of xylazine (10%) and ketamine (90%). Rats were positioned in a stereotaxic apparatus and the bregma was located. To reach the lateral ventricle, a hole was drilled 0.8 mm caudal and 1.4-1.5 mm left or right of the bregma. The catheter was inserted 4.5 mm deep into the brain and 4.0 cm of polyethylene tubing was connected to the end to the catheter. Screws and dental cement were used to secure the catheter in place. After suturing the skin, the rats were allowed to recover from surgery for 4-5 days. Each rat was housed separately in a 12 hr light-dark cycle with free access to food and water. Rats with any neurological problems were not used in the analgesic testing.
The tail flick assay was used to measure analgesia as described above in Example 2.1. Briefly, the rats were first habituated to the tail flick chamber. […] The latency to remove the tail was recorded. […] Responses were expressed as % maximum possible effect (MPE): [formula]

| Compound | change in analgesia, antagonist alone (Sprague Dawley rats [1]) | hyperalgesia when naltrexone is given with ESP7+2CD (Sprague Dawley rats [1]; naltrexone with 0.2 μg and 1.0 μg ESP7+2CD intrathecal) | Kd (NK1 receptor) [nM] | analgesia (tail flick, % MPE) (rats) | Kd (μ receptor) [nM] | analgesia (tail flick, % MPE) (Sprague Dawley rats [2]) |
| --- | --- | --- | --- | --- | --- | --- |
| COc1ccccc1CC(=N)N1C[C@@H]2C(=O)CCC(c3ccccc3)(c3ccccc3)[C@@H]2C1 [RP67580] | no effect on the level of analgesia |  |  |  |  |  |
| O=C1CC[C@@]2(O)[C@H]3Cc4ccc(O)c5c4[C@@]2(CCN3CC2CC2)[C@H]1O5 [naltrexone] | produced no change in analgesia | produced some hyperalgesia |  |  |  |  |
| H-YPFFGLM-NH2 [ESP7, Tyr-Pro-Phe-Phe-Gly-Leu-Met-NH2] |  |  | ~200 | produced analgesia as seen with intrathecal administration | ~300 | produced analgesia |
